# Data from patent US20210388260A1, “USE OF A SUBSTITUTED OR UNSUBSTITUTED POLYCYCLIC AROMATIC HYDROCARBON COMPOUND FOR HIGH-RESOLUTION MICROSCOPY” (Max-Planck-Gesellschaft zur Förderung der Wissenschaften e.V, priority 2018, published 2021).
# Assays:
# [1] = assay type: physicochemical
# Experimental: (§1) 3,4,5-Tris(hexaethylene glycol) substituted 6,14-dimesityldibenzo[hi,st]ovalene was prepared analogous to example 4 and evaluated concerning its toxicity.
# [2] = Toxicity evaluation (Example 9)
# Experimental: as §1
# [3] = Absorption and emission spectra, molar extinction coefficient, fluorescence quantum yield; assay type: physicochemical; details: for width of absorption and emission spectra: spectra of FIGS. 3a-d, 4a-d; for fluorescence quantum yield / maximum absorption wavelength / molar extinction coefficient ε: in toluene (10^−5 mol/L); for molar extinction coefficient ε: at maximum absorption wavelength
# Excerpt: The maximum absorption wavelength in toluene (10^−5 mol/L) was 611 nm (molar extinction coefficient ε=2.03×10^5 M^−1 cm^−1) with a high fluorescence quantum yield of 0.85.
# The maximum absorption wavelength in toluene (10^−5 mol/L) was 609 nm (molar extinction coefficient c=2.83×10^5 M^−1 cm^−1) with a high fluorescence quantum yield of 0.85.
# The maximum absorption wavelength in toluene (10^−5 mol/L) was 647 nm (molar extinction coefficient ε=61511 M^−1 cm^−1) with a fluorescence quantum yield of 0.67.
# The maximum absorption wavelength in toluene (10^−5 mol/L) was 609 nm (molar extinction coefficient ε=3.85×10^5 M^−1 cm^−1) with a high fluorescence quantum yield of 0.89.
# [4] = STED imaging, stability embedded in polystyrene and in air (Example 12); assay type: physicochemical; details: high STED beam power, 3D STED imaging of more than one hour
# Experimental: Different measurements were performed with 6,14-dimesityldibenzo[hi,st]ovalene being embedded in a polystyrene matrix and with 6,14-dimesityldibenzo[hi,st]ovalene in air. A Leica SP8 microscopy was used for the microscopy with an excitation laser wavelength of 561 nm and depletion (STED) laser wavelength of 775 nm.
# The prepared glass coverslips were taped to a slide and kept in dark at room temperature until use.
# A 15-months old sample of 6,14-dimesityldibenzo[hi,st]ovalene embedded in polystyrene as well as a freshly prepared sample of 6,14-dimesityldibenzo[hi,st]ovalene embedded in polystyrene were analyzed by STED.
# 6,14-dimesityldibenzo[hi,st]ovalene powder was dispersed in toluene at room temperature to a concentration of 10^−5 mol/L and was then further diluted to the needed concentration of e.g. 10^−7 mol/L. A gridded glass coverslip (#1.5) purchased from Ibidi GmbH in Martinsried, Germany which have microscopic/nano-structures was cleaned by oxygen-plasma cleaner (250 W, 5 minutes). 8 μl 10^−7 mol/L solution were put on top of the micro/nano-structure sample. After a few minutes, when all of the toluene was volatilized completely, the prepared sample was put on the microscope for 3D STED imaging.
# The STED was performed with the following microscopy settings of the Leica SP8 microscope: […]
# living cells [5] = test: Cytotoxicity test in living cells (Example 13, FIG. 8); assay type: cell-based; details: concentration of 1 μM
# Experimental: (§2) More specifically, the cytotoxicity of DBOV-Mes-OTEG was tested in living cells. […] Moreover, the uptake of DBOV-Mes-OTEG into living cells was investigated by imaging 21 hours with low laser intensity at the spinning disk confocal microscopy (Visitron).
# Solubility in water = assay type: physicochemical; details: room temperature
# Experimental: In accordance with the present invention, the solubility and particularly the solubility of the compound having the general formula (1) or the general formula (2) in water at 23° C. is measured as follows: 1 mg sample is weighed into an Erlenmeyer flask and is then mixed homogeneously with 4 ml of water with a spatula at 23° C. The remaining substance on the spatula is stripped off with a magnetic stirrer bar, which is then added to the Erlenmeyer flask. While stirring with a magnetic stirrer, water is added dropwise with a burette until the solution in the Erlenmeyer flask becomes clear at 23° C. After that, the solubility of compound in water is calculated by calculating the ratio of weighed compound divided by the volume of added water and then by recalculating this ratio to 1 l of water.
# fixed cells = test: Blinking-mode imaging of fixed cell samples in PBS without special imaging buffer; assay type: cell-based
# Excerpt: After the aforementioned live cell imaging, the samples were fixed and imaged in phosphate-buffered saline (PBS) without special imaging buffer.
# living cells [6] = test: Uptake into living cells, spinning disk confocal microscopy; assay type: cell-based
# Experimental: as §2
Compound,width of absorption and emission spectra [3],fluorescence quantum yield [3],maximum absorption wavelength [3] [nm],molar extinction coefficient ε [3] [M⁻¹ cm⁻¹],further results
"3,4,5-Tris(hexaethylene glycol) substituted 6,14-dimesityldibenzo[hi,st]ovalene",–,–,–,–,solubility in DMSO [1]: good solubility; concentration up to which the compound is non-toxic [2]: ≤ 5 µM
"6,14-diphenyldibenzo[hi,st]ovalene [Example 7]",narrow absorption spectrum as well as a narrow emission spectrum,–,–,–,–
"Cc1cc(C)c(-c2c3cccc4c5ccc6ccc7c(-c8c(C)cc(C)cc8C)c8cccc9c%10ccc%11ccc2c2c%11c%10c%10c(c89)c7c6c5c%10c2c34)c(C)c1 [DBOV-Mes, 6,14-dimesityldibenzo[hi,st]ovalene]",–,–,–,–,stability and brightness under STED beam [4]: very stable and still very bright
"CCCCCCCCCCCCc1c2cccc3c4ccc5ccc6c(CCCCCCCCCCCC)c7cccc8c9ccc%10ccc1c1c%10c9c9c(c78)c6c5c4c9c1c23 [Example 1, 6,14-didodecyldibenzo[hi,st]ovalene]",–,0.85,611,203000,melting point: > 400 °C
"Cc1cccc(C)c1-c1c2cccc3c4ccc5ccc6c(-c7c(C)cccc7C)c7cccc8c9ccc%10ccc1c1c%10c9c9c(c78)c6c5c4c9c1c23 [Example 2, 6,14-bis(dimethylphenyl)dibenzo[hi,st]ovalene]",narrow absorption spectrum as well as a narrow emission spectrum,0.85,609,283000,–
"COCCOCCOCCOCCOc1cc(-c2ccc3cc4cc5c(-c6c(C)cc(C)cc6C)cc6cc7c(-c8cc(OCCOCCOCCOCCOC)c(OCCOCCOCCOCCOC)c(OCCOCCOCCOCCOC)c8)ccc8cc9cc%10c(-c%11c(C)cc(C)cc%11C)cc%11cc2c3c2c%11c%10c3c9c(c87)c6c5c3c42)cc(OCCOCCOCCOCCOC)c1OCCOCCOCCOCCOC [Example 4, 3,11-bis(3,4,5-tris(2,5,8,11-tetraoxatridecan-13-yloxy)phenyl)-6,14-dimesityldibenzo[hi,st]ovalene]",–,–,–,–,"toxicity to cells (living cells [5]): does not show any significant toxicity; solubility in water (Solubility in water): 0.1 g/L; decrease of blinking signals (fixed cells; continuous exposure, high laser intensity 10 kW/cm^2 for 90 min): no significant decrease; blinking signals at low laser intensity (fixed cells; low laser intensity of 240 W/cm^2): blinking signals could also be imaged; location of compound in living cells (living cells [6]; after 21 hours incubation): in the nucleus and nuclear membrane; location of compound in living cells (living cells [6]; at the beginning of the incubation): taken into the cytoplasm"
"CC(C)[Si](C#Cc1c2cccc3c4ccc5ccc6c(C#C[Si](C(C)C)(C(C)C)C(C)C)c7cccc8c9ccc%10ccc1c1c%10c9c9c(c78)c6c5c4c9c1c23)(C(C)C)C(C)C [Example 5, 6,14-di(triisopropylsilylethynyl) dibenzo[hi,st]ovalene]",narrow absorption spectrum as well as a narrow emission spectrum,0.67,647,61511,–
"CCCCCCCCCCCCOc1cc(-c2c3cccc4c5ccc6ccc7c(-c8cc(OCCCCCCCCCCCC)c(OCCCCCCCCCCCC)c(OCCCCCCCCCCCC)c8)c8cccc9c%10ccc%11ccc2c2c%11c%10c%10c(c89)c7c6c5c%10c2c34)cc(OCCCCCCCCCCCC)c1OCCCCCCCCCCCC [Example 6, 6,14-bis[3,4,5-tris(dodecoxyl)-phenyl]dibenzo[hi,st]ovalene]",–,0.89,609,385000,–
"CCCCCCn1c(=O)c2c3ccc4c(-c5c(C)cc(C)cc5C)c5ccc6cc7c8c(=O)n(CCCCCC)c(=O)c8c8ccc9c(-c%10c(C)cc(C)cc%10C)c%10ccc%11cc(c2c1=O)c1c3c4c2c5c6c3c7c8c9c4c%10c%11c1c2c43 [Example 8, N-hexyl fumaric acid imide group substituted 6,14-dimesityldibenzo[hi,st]ovalene]",narrow absorption spectrum as well as a narrow emission spectrum,–,–,–,–
